Data published in patent US5179090A, “Condensed diazepinones and medicaments containing these compounds” (priority 1989, dated 1993).

What was measured:
guinea pig ileum = assay: In situ spasmolytic effect in guinea pigs (methacholine-induced ileum contractions); assay type: in vivo; details: i.v.; for ED50: Cavia porcellus, iv, 5 min, guinea pig, methacholine 20 μg/kg intraarterially, n=4 to 8, read-out: -log ED50 in situ spasmolysis guinea pig ileum (converted); for Ratio saliva secretion inhibition to spasmolytic activity: rat saliva secretion vs guinea pig ileum in situ
From the text: (§1) The methods used had the aim of confirming the selectivity of the anti-muscarine effect. Any substances which had been selected on the basis of "in vitro" investigations were investigated for
3. in situ spasmolytic activity in the guinea pig.
3 In situ spasmolytic effect in guinea pigs
Male guinea pigs (500 to 600 g body weight) were anaesthetised using urethane (1.2 g/kg intraperitoneally);cannulae Were introduced into the trachea, jugular vein and the left carotid artery. The animals were artificially respirated by means of a positive pressure pump using oxygen-enriched air at a beat frequency of 80 per minute. A 3 to 4 cm abdominal incision was made and about 15 cm of a movable loop of the ileum was removed distally while maintaining the blood circulation. The proximal part was filled with a Krebs-Ringer solution and a pressure meter was introduced into the intestine using a Millar micro-tip catheter (PC-450, 5F). A glass tube was placed vertically in the abdomen and attached to the surrounding abdominal wall such that the animal served as its own organ bath when the glass tube was filled with Krebs-Ringer solution.
The glass tube was filled with Krebs-Ringer solution until the whole of the hypogastrium was immersed. The active agents to be tested were injected via the jugular vein; 5 minutes later contractions were produced by means of methacholine (20 μg/kg intraarterially). Dosage-activity graphs were obtained by plotting the percentage suppression of contractions produced by methacholine against the logarithm of dosage amount (mole/kg) of the active substance to be tested.
The results were given as average values (n=4 to 8) (see Table II).

saliva secretion = assay: Saliva secretion-inhibiting effect in the rat (pilocarpine-triggered); assay type: in vivo; details: iv, pilocarpine 2 mg/kg subcutaneous, 50% reduction of saliva volume, read-out: -log ED50 saliva secretion inhibition rat (converted)
Method: as §1
2. saliva secretion-inhibiting effect in the rat, and
2. Saliva secretion-inhibitino effect in the rat
The secretion of saliva was triggered by subcutaneous administration of 2 mg/kg of pilocarpine. The saliva was absorbed using blotting paper, the surface taken up by it was determined planimetrically every 5 minutes. The dosage of the substance which reduced the volume of saliva by 50% was determined graphically.

M receptors of the heart [1] = biological target: T1, M receptors of the heart (Cavia porcellus, UniProt H0VRN8); assay: Acetylcholine antagonism in anaesthetised guinea pigs: inhibition of bradycardia; assay type: in vivo, guinea pig; details: iv, 5 min; guinea pig, i.v., acetylcholine antagonism (bradycardia), n=4-6; read-out: -log ED50 heart (converted)
T1 construct: from tissue; host or cells: heart of anaesthetised guinea pigs (in vivo)
T1 sequence (H0VRN8 1-466): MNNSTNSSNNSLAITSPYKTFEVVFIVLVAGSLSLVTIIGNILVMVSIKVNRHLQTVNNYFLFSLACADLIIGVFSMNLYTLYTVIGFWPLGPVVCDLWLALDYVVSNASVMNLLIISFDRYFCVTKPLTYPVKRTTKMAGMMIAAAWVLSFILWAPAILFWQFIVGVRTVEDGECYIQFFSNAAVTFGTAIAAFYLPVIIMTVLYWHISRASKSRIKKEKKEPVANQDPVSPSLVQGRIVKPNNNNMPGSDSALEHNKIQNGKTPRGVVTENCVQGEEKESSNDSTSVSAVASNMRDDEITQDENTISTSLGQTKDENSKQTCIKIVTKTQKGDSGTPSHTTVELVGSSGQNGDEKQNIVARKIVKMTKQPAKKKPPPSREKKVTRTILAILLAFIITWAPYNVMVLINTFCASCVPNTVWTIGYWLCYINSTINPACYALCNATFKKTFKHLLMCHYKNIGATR
From the text: as §1
(§2) 1. Effect on M receptors of the bronchial tubes, the heart and the bladder of anaesthetised guinea pigs
(§3) Guinea pigs of both sexes (550-600 g body weight) were anaesthetised using urethane (1.4 g/kg intraperitoneally). A cannula was introduced into the augular vein to inject the active agents. 220 I.U./kg of heparin were injected intravenously. A cannula was introduced into the trachea; the animals were artificially respirated by means of a positive pressure pump (Braun-Melsungen) using oxygen-enriched air at a rate of 80 beats per minute. A branch of the tracheal cannula was connected to a water manometer 10 cm high. The respiration volume was set such that the maximum intratracheal pressure just reached the pressure of a 10 cm water column during respiration.
(§4) The values were recorded using an IFD recording apparatus. The trachea was clamped for a short time before the test to produce the maximum possible degree of bronchoconstriction for calibration. […] The heart rate was measured using a rate detector which is triggered by arterial pulse waves.
(§5) The active substances to be tested were injected via the jugular vein, 5 minutes later the increase in tone of the bladder (in grams) the bronchial resistance (in %) and the decrease in heart rate (beats per minute) were measured after administration of acetylcholine (50 μg/kg intravenously and intraarterially). Dosage-dependency graphs were drawn by plotting the percentage inhibition of bronchoconstriction, bradycardia and the increase in tone of the bladder against the logarithm of the dosage (mole/kg) of the active agents to be investigated. The results are given as average values (n=4-6).

[2] = tested on: M receptors of the bronchial tubes; assay: Acetylcholine antagonism in anaesthetised guinea pigs: inhibition of bronchoconstriction; assay type: in vivo, guinea pig; details: for Ratio influence of bradycardia to bronchoconstriction: guinea pig, i.v., ratio heart (bradycardia) to bronchial tubes; for selectivity for smooth muscle: smooth muscle vs heart rate or saliva secretion
From the text: as §1
(§6) 1. selectivity of the bronchospasmolytic activity in the guinea pig,
as §2, §3, §4, §5

[3] = biological target: T2, M receptors of the bronchial tubes (Cavia porcellus, UniProt H0W1Z3); assay: as above; assay type: in vivo, guinea pig; details: iv, 5 min; guinea pig, i.v., acetylcholine antagonism, n=4-6; read-out: -log ED50 bronchial tubes (converted)
T2 construct: Guinea pigs of both sexes (550-600 g body weight) were anaesthetised using urethane; from tissue; host or cells: bronchi of anaesthetised guinea pigs (in vivo)
T2 sequence (H0W1Z3 1-590): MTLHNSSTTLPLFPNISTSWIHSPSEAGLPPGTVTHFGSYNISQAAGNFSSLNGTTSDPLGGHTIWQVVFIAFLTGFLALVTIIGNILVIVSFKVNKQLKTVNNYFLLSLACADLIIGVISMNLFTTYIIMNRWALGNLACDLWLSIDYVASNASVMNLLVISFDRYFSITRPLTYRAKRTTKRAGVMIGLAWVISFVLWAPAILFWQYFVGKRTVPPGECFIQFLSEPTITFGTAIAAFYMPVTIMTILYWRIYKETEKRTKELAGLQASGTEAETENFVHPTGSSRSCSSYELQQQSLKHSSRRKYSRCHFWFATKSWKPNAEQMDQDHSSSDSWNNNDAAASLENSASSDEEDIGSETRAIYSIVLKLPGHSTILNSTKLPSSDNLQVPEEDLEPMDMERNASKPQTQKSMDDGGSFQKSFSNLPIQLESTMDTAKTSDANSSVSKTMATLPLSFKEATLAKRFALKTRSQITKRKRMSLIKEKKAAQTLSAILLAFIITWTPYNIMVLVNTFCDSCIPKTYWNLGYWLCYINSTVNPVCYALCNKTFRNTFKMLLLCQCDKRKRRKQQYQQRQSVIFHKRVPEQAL
From the text: as §1, §6, §2, §3, §4, §5

[4] = biological target: T3, M receptors of the bladder (Cavia porcellus, UniProt H0W1Z3); assay: Acetylcholine antagonism in anaesthetised guinea pigs: inhibition of increase in tone of the bladder; assay type: in vivo; details: iv, 5 min, guinea pig, i.v., n=4-6, read-out: -log ED50 bladder (converted)
T3 construct: the bladder was connected to a power transducer under a resting tension of 1 gram; from tissue; host or cells: urinary bladder of anaesthetised guinea pigs (in vivo)
T3 sequence (H0W1Z3 1-590): as above
From the text: as §1, §2, §3
A small median abdominal incision was made and the bladder was connected to a power transducer under a resting tension of 1 gram.
as §5

[5] = biological target: T4, muscarine receptors of the vestibule (Cavia porcellus, UniProt H0VRN8); assay: In vitro dissociation constant on spontaneously beating vestibule (heart), methacholine antagonism; assay type: cell-based; details: guinea pig spontaneously beating vestibule
T4 construct: in the removed, spontaneously beating right vestibule; from tissue; host or cells: isolated spontaneously beating right atrium ('vestibule') of guinea pig
T4 sequence (H0VRN8 1-466): T1 sequence (H0VRN8 1-466)
Method: (§7) Substances having anti-muscarine properties inhibit the effects of exogenically introduced agonists or of acetylcholine which is released from cholinergic nerve endings. A description of methods which are suitable for determining spasmolytically active anti-muscarine agents is given below.
(§8) Dissociation constants ([…]) were determined "in vitro" on the ileum and spontaneously beating vestibule of a guinea pig. The ileum was removed and incubated in an organ bath in Krebs- Henseleit solution. Contractions were induced by increasing concentrations of methacholine (M) such that complete concentration-activity graphs could be plotted. M was then washed out, the substance to be investigated was added and incubated for 30 minutes, and once again a concentration-activity graph was plotted using M.
The dissociation constant according to Arunlakshana and Schild (Brit. J. Pharmacol. 14; 48 (1959)) Was calculated from the dosage ratio (DR) which is the measure of the displacement of the concentration-activity graph.
M reduced the heart rate as a function of concentration in the removed, spontaneously beating right vestibule. This effect was cancelled again by adding an anti-muscarine agent. Dissociation constants for the muscarine receptors of the vestibule were obtained in the same manner as described above. The comparison of the dissociation constants determined in both tissues permitted the identification of selectively spasmolytically active substances.

[6] = biological target: T5, muscarine receptors in the ileum (Cavia porcellus, UniProt H0W1Z3); assay: In vitro dissociation constant on ileum, methacholine antagonism; assay type: cell-based, guinea pig; details: guinea pig ileum
T5 construct: The ileum was removed and incubated in an organ bath; from tissue; host or cells: isolated ileum of guinea pig
T5 sequence (H0W1Z3 1-590): as above
Method: as §7, §8
(§9) Dissociation constants for the muscarine receptors of the vestibule were obtained in the same manner as described above.

[7] = tested on: muscarine receptors in the ileum; assay: as above; assay type: cell-based, guinea pig; details: guinea pig
Method: as §7, §8, §9

M receptors of the heart [8] = assay: Acetylcholine antagonism in anaesthetised guinea pigs: inhibition of bradycardia; assay type: in vivo, guinea pig; details: comparison, Tables I and III
From the text: as §1, §2, §3, §4, §5

ED50 [3]	ED50 [4]	Kb [5]	Kb [6]	Structure (SMILES)	ED50 (guinea pig ileum)	Ratio saliva secretion inhibition to spasmolytic activity (guinea pig ileum)	ED50 (saliva secretion)	ED50 (M receptors of the heart [1])	Ratio influence of bradycardia to bronchoconstriction [2]	selectivity for smooth muscle [2]	Selectivity KB heart to KB ileum [7]	effectiveness on cardiac muscarine receptors (M receptors of the heart [8])
0.049 µmol/kg	0.49 µmol/kg	209 nM	30.2 nM	CN1CCC2C1CCN2C(=O)N1c2ccccc2C(=O)Nc2cccnc21 (centres unmarked) [A]	0.117 µmol/kg	2	0.2 µmol/kg	1.05 µmol/kg	21	very marked smooth muscle selectivity	6.9	
0.0447 µmol/kg	0.813 µmol/kg	145 nM	60.3 nM	CN1CCC2C1CCN2C(=O)N1c2ccccc2NC(=O)c2cccnc21 (centres unmarked) [B]				1.95 µmol/kg	44	very marked smooth muscle selectivity	2.4	
0.631 µmol/kg	3.02 µmol/kg			CN1CC2CN(C(=O)N3c4ccccc4C(=O)Nc4cccnc43)CC2C1 (centres unmarked) [C]	0.708 µmol/kg	4	2.95 µmol/kg	4.79 µmol/kg	8			
0.0891 µmol/kg	1.58 µmol/kg			Cc1scc2c1N(C(=O)N1CC3CN(C)CC3C1)c1ccccc1NC2=O (centres unmarked) [D]				0.741 µmol/kg	8			
2.63 µmol/kg	11.7 µmol/kg	105 nM	617 nM	CN(C)CC1CCCCN1CC(=O)N1c2ccccc2C(=O)Nc2cccnc21 (centres unmarked) [X]				1.45 µmol/kg	0.5		0.17	higher effectiveness on cardiac muscarine receptors

Structure (SMILES)	ED50 [3]	ED50 [4]	Kb [5]	Kb [6]	ED50 (guinea pig ileum)	Ratio saliva secretion inhibition to spasmolytic activity (guinea pig ileum)	ED50 (saliva secretion)	ED50 (M receptors of the heart [1])	Ratio influence of bradycardia to bronchoconstriction [2]	selectivity for smooth muscle [2]	Selectivity KB heart to KB ileum [7]	effectiveness on cardiac muscarine receptors (M receptors of the heart [8])
CN1CCN(CC(=O)N2c3ccccc3C(=O)Nc3cccnc32)CC1 [Y]	0.269 µmol/kg	1.45 µmol/kg	123 nM	194 nM	0.832 µmol/kg	0.5	0.38 µmol/kg	1.26 µmol/kg	5	no selectivity	0.63	
CN1[C@@H]2CC[C@H]1CC(OC(=O)C(CO)c1ccccc1)C2 (some centres unmarked) [Z]	0.00813 µmol/kg	0.0525 µmol/kg			0.0525 µmol/kg			0.0269 µmol/kg				
